The assay has as its system E. coli K88. Put plainly: Control of E. coli K88 growth in Brain Heart Infusion broth (OD600nm). Format: cell-based, Escherichia coli. Conditions: colistine 12 ppm, sodium salt of MCFA 1200 ppm; for OD600nm: pH 4.0, 37° C., MCFA values higher by intrinsic turbidity. The protocol: Three samples of 100 ml of fermentation broth (Brain Heart Infusion) were equally inoculated with an overnight culture of E. coli K88 (pathogen in gastrointestinal tract of piglet) and further incubated at 37° C. The optical density at 600 nm (OD600nm)—which is proportional to the amount of E. coli cells present (FIG. 1)—was measured. As soon as an OD600nm of between 0.2 and 0.5 was obtained,
(1) nothing was added to the first sample,
(2) 12 ppm of colistine was added to the second sample and
(3) 1200 ppm of the sodium salt of MCFA (mixture containing 50% of fatty acid with 8 carbon atoms and 50% of fatty acid with 10 carbon atoms) was added to the third sample.
The samples were further incubated at 37° C. for 4 hours at pH 4.0. The OD600nm was measured evey hour. The samples were removed from the incubation after 4 hours, the pH was measured in order to register possible pH changes during incubation.

The values below come from patent publication US20030176500A1, “Medium chain fatty acids applicable as antimicrobial agents” (priority 2000, published 2003).

As for colistine, the OD600nm is, setting by setting: (2 hours after pH setting) 0.420; (3 hours after pH setting) 0.449; (4 hours after pH setting) 0.455. Moreover, under “between 2 and 4 hours”, the “Difference in OD600nm” value came to 0.035. In addition, where the note is “blank = 100”, the Growth % worked out at 44%. For the same substance, the “growth of E. coli retarded” value (pH 4.0) turned out to be 56%.
